± gives the expanded uncertainty stated by the source.
Details: 303.15 K, Liquid, Vibrating tube method

CCCCC(=O)OCC(COC(=O)CCCC)(COC(=O)CCCC)COC(=O)CCCC [pentaerythritol tetrapentanoate] showed a mass density (981.39 kPa) of 1011.5 ± 1.2 kg/m3, a mass density (983.3 kPa) of 1011.5 ± 1.2 kg/m3 and a mass density (985.21 kPa) of 1011.5 ± 1.2 kg/m3. For the same compound, the mass density (987.46 kPa) was 1011.4 ± 1.2 kg/m3, the mass density (989.21 kPa) was 1011.5 ± 1.2 kg/m3 and the mass density (990.77 kPa) was 1011.5 ± 1.2 kg/m3. It also gave a mass density (992.34 kPa) of 1011.5 ± 1.2 kg/m3, a mass density (994.41 kPa) of 1011.4 ± 1.2 kg/m3 and a mass density (996.16 kPa) of 1011.4 ± 1.2 kg/m3. The mass density (998.06 kPa) was 1011.5 ± 1.2 kg/m3, the mass density (1000.1 kPa) was 1011.3 ± 1.2 kg/m3 and the mass density (1002.1 kPa) was 1011.3 ± 1.2 kg/m3. It also gave a mass density (1004.3 kPa) of 1011.4 ± 1.2 kg/m3, a mass density (1005.9 kPa) of 1011.4 ± 1.2 kg/m3 and a mass density (1007.8 kPa) of 1011.4 ± 1.2 kg/m3. For the same compound, the mass density (1009.4 kPa) was 1011.5 ± 1.2 kg/m3, the mass density (1011.3 kPa) was 1011.5 ± 1.2 kg/m3 and the mass density (1014 kPa) was 1011.5 ± 1.2 kg/m3. For the same compound, the mass density (1015.8 kPa) was 1011.5 ± 1.2 kg/m3, the mass density (1017.3 kPa) was 1011.5 ± 1.2 kg/m3 and the mass density (1019.2 kPa) was 1011.5 ± 1.2 kg/m3. The mass density (1021.5 kPa) was 1011.4 ± 1.2 kg/m3, the mass density (1023.4 kPa) was 1011.5 ± 1.2 kg/m3 and the mass density (1025.3 kPa) was 1011.5 ± 1.2 kg/m3. The mass density (1027.4 kPa) was 1011.6 ± 1.2 kg/m3, the mass density (1029.5 kPa) was 1011.5 ± 1.2 kg/m3 and the mass density (1031.2 kPa) was 1011.6 ± 1.2 kg/m3. For the same compound, the mass density (1033.5 kPa) was 1011.5 ± 1.2 kg/m3, the mass density (1035.6 kPa) was 1011.5 ± 1.2 kg/m3 and the mass density (1036.8 kPa) was 1011.4 ± 1.2 kg/m3. The mass density (1039.1 kPa) was 1011.5 ± 1.2 kg/m3, the mass density (1041.1 kPa) was 1011.6 ± 1.2 kg/m3 and the mass density (1042.9 kPa) was 1011.6 ± 1.2 kg/m3. The mass density (1045 kPa) was 1011.5 ± 1.2 kg/m3, the mass density (1047.6 kPa) was 1011.6 ± 1.2 kg/m3 and the mass density (1049.5 kPa) was 1011.5 ± 1.2 kg/m3. For the same compound, the mass density (1051.4 kPa) was 1011.4 ± 1.2 kg/m3, the mass density (1053.7 kPa) was 1011.5 ± 1.2 kg/m3 and the mass density (1055.7 kPa) was 1011.5 ± 1.2 kg/m3. The mass density (1058 kPa) was 1011.5 ± 1.2 kg/m3, the mass density (1059.7 kPa) was 1011.5 ± 1.2 kg/m3 and the mass density (1062.2 kPa) was 1011.5 ± 1.2 kg/m3. It also gave a mass density (1064.4 kPa) of 1011.5 ± 1.2 kg/m3, a mass density (1066.7 kPa) of 1011.6 ± 1.2 kg/m3 and a mass density (1068.7 kPa) of 1011.5 ± 1.2 kg/m3. It also gave a mass density (1071 kPa) of 1011.5 ± 1.2 kg/m3, a mass density (1072.9 kPa) of 1011.6 ± 1.2 kg/m3 and a mass density (1075.2 kPa) of 1011.5 ± 1.2 kg/m3. It also gave a mass density (1077.2 kPa) of 1011.5 ± 1.2 kg/m3, a mass density (1078.8 kPa) of 1011.5 ± 1.2 kg/m3 and a mass density (1081.6 kPa) of 1011.5 ± 1.2 kg/m3. It also gave a mass density (1083.8 kPa) of 1011.5 ± 1.2 kg/m3, a mass density (1085.9 kPa) of 1011.5 ± 1.2 kg/m3 and a mass density (1088 kPa) of 1011.6 ± 1.2 kg/m3. The mass density (1090.6 kPa) was 1011.6 ± 1.2 kg/m3, the mass density (1092.7 kPa) was 1011.6 ± 1.2 kg/m3 and the mass density (1095 kPa) was 1011.5 ± 1.2 kg/m3. It also gave a mass density (1097.4 kPa) of 1011.5 ± 1.2 kg/m3, a mass density (1099.5 kPa) of 1011.5 ± 1.2 kg/m3 and a mass density (1101.7 kPa) of 1011.5 ± 1.2 kg/m3. It also gave a mass density (1104 kPa) of 1011.6 ± 1.2 kg/m3, a mass density (1106.4 kPa) of 1011.5 ± 1.2 kg/m3 and a mass density (1108.7 kPa) of 1011.5 ± 1.2 kg/m3. For the same compound, the mass density (1111.1 kPa) was 1011.5 ± 1.2 kg/m3, the mass density (1113.4 kPa) was 1011.5 ± 1.2 kg/m3 and the mass density (1116 kPa) was 1011.5 ± 1.2 kg/m3. It also gave a mass density (1117.9 kPa) of 1011.5 ± 1.2 kg/m3, a mass density (1120.7 kPa) of 1011.6 ± 1.2 kg/m3 and a mass density (1122.8 kPa) of 1011.6 ± 1.2 kg/m3. The mass density (1124.8 kPa) was 1011.5 ± 1.2 kg/m3, the mass density (1127.3 kPa) was 1011.5 ± 1.2 kg/m3 and the mass density (1129.7 kPa) was 1011.5 ± 1.2 kg/m3. For the same compound, the mass density (1132.3 kPa) was 1011.6 ± 1.2 kg/m3, the mass density (1134.6 kPa) was 1011.7 ± 1.2 kg/m3 and the mass density (1137.5 kPa) was 1011.5 ± 1.2 kg/m3. It also gave a mass density (1139.8 kPa) of 1011.6 ± 1.2 kg/m3, a mass density (1141.8 kPa) of 1011.5 ± 1.2 kg/m3 and a mass density (1144.1 kPa) of 1011.7 ± 1.2 kg/m3. For the same compound, the mass density (1147.1 kPa) was 1011.4 ± 1.2 kg/m3, the mass density (1149.3 kPa) was 1011.6 ± 1.2 kg/m3 and the mass density (1151.6 kPa) was 1011.6 ± 1.2 kg/m3. It also gave a mass density (1153.8 kPa) of 1011.5 ± 1.2 kg/m3, a mass density (1156.6 kPa) of 1011.6 ± 1.2 kg/m3 and a mass density (1159 kPa) of 1011.6 ± 1.2 kg/m3. The mass density (1162.2 kPa) was 1011.6 ± 1.2 kg/m3, the mass density (1164.3 kPa) was 1011.8 ± 1.2 kg/m3 and the mass density (1166.9 kPa) was 1011.6 ± 1.2 kg/m3. It also gave a mass density (1169.3 kPa) of 1011.6 ± 1.2 kg/m3, a mass density (1171.7 kPa) of 1011.7 ± 1.2 kg/m3 and a mass density (1174.3 kPa) of 1011.6 ± 1.2 kg/m3. The mass density (1176.6 kPa) was 1011.5 ± 1.2 kg/m3, the mass density (1179.2 kPa) was 1011.6 ± 1.2 kg/m3 and the mass density (1182 kPa) was 1011.6 ± 1.2 kg/m3. For the same compound, the mass density (1184.7 kPa) was 1011.6 ± 1.2 kg/m3, the mass density (1187.2 kPa) was 1011.7 ± 1.2 kg/m3 and the mass density (1190.1 kPa) was 1011.7 ± 1.2 kg/m3. For the same compound, the mass density (1192.6 kPa) was 1011.7 ± 1.2 kg/m3, the mass density (1195.2 kPa) was 1011.6 ± 1.2 kg/m3 and the mass density (1198.1 kPa) was 1011.6 ± 1.2 kg/m3. For the same compound, the mass density (1200.7 kPa) was 1011.6 ± 1.2 kg/m3, the mass density (1203.2 kPa) was 1011.6 ± 1.2 kg/m3 and the mass density (1206.3 kPa) was 1011.6 ± 1.2 kg/m3. For the same compound, the mass density (1208.5 kPa) was 1011.6 ± 1.2 kg/m3, the mass density (1211.3 kPa) was 1011.6 ± 1.2 kg/m3 and the mass density (1213.9 kPa) was 1011.6 ± 1.2 kg/m3. For the same compound, the mass density (1216.9 kPa) was 1011.7 ± 1.2 kg/m3, the mass density (1219.5 kPa) was 1011.7 ± 1.2 kg/m3 and the mass density (1222.1 kPa) was 1011.6 ± 1.2 kg/m3. The mass density (1224.7 kPa) was 1011.7 ± 1.2 kg/m3, the mass density (1227.8 kPa) was 1011.7 ± 1.2 kg/m3 and the mass density (1230.6 kPa) was 1011.7 ± 1.2 kg/m3. It also gave a mass density (1233.4 kPa) of 1011.6 ± 1.2 kg/m3, a mass density (1236.1 kPa) of 1011.6 ± 1.2 kg/m3 and a mass density (1239.1 kPa) of 1011.7 ± 1.2 kg/m3. For the same compound, the mass density (1241.9 kPa) was 1011.6 ± 1.2 kg/m3, the mass density (1244.7 kPa) was 1011.6 ± 1.2 kg/m3 and the mass density (1248 kPa) was 1011.6 ± 1.2 kg/m3. The mass density (1250.6 kPa) was 1011.7 ± 1.2 kg/m3, the mass density (1253.5 kPa) was 1011.6 ± 1.2 kg/m3 and the mass density (1256.1 kPa) was 1011.6 ± 1.2 kg/m3. It also gave a mass density (1259.1 kPa) of 1011.6 ± 1.2 kg/m3, a mass density (1262 kPa) of 1011.6 ± 1.2 kg/m3 and a mass density (1265 kPa) of 1011.7 ± 1.2 kg/m3. The mass density (1268.1 kPa) was 1011.6 ± 1.2 kg/m3, the mass density (1271 kPa) was 1011.6 ± 1.2 kg/m3 and the mass density (1274 kPa) was 1011.7 ± 1.2 kg/m3. The mass density (1277 kPa) was 1011.6 ± 1.2 kg/m3, the mass density (1279.4 kPa) was 1011.6 ± 1.2 kg/m3 and the mass density (1283 kPa) was 1011.7 ± 1.2 kg/m3. For the same compound, the mass density (1286 kPa) was 1011.7 ± 1.2 kg/m3, the mass density (1289.1 kPa) was 1011.6 ± 1.2 kg/m3 and the mass density (1292.6 kPa) was 1011.7 ± 1.2 kg/m3. For the same compound, the mass density (1296 kPa) was 1011.7 ± 1.2 kg/m3, the mass density (1299.7 kPa) was 1011.6 ± 1.2 kg/m3 and the mass density (1302.8 kPa) was 1011.7 ± 1.2 kg/m3. The mass density (1305.6 kPa) was 1011.7 ± 1.2 kg/m3, the mass density (1308.5 kPa) was 1011.6 ± 1.2 kg/m3 and the mass density (1312.2 kPa) was 1011.7 ± 1.2 kg/m3. It also gave a mass density (1315 kPa) of 1011.8 ± 1.2 kg/m3, a mass density (1318.1 kPa) of 1011.7 ± 1.2 kg/m3 and a mass density (1321.4 kPa) of 1011.7 ± 1.2 kg/m3. It also gave a mass density (1324.3 kPa) of 1011.7 ± 1.2 kg/m3, a mass density (1327.8 kPa) of 1011.6 ± 1.2 kg/m3 and a mass density (1331.1 kPa) of 1011.7 ± 1.2 kg/m3. The mass density (1334.2 kPa) was 1011.8 ± 1.2 kg/m3, the mass density (1337.4 kPa) was 1011.6 ± 1.2 kg/m3 and the mass density (1340.5 kPa) was 1011.6 ± 1.2 kg/m3. For the same compound, the mass density (1343.8 kPa) was 1011.7 ± 1.2 kg/m3, the mass density (1347.3 kPa) was 1011.8 ± 1.2 kg/m3 and the mass density (1350.2 kPa) was 1011.7 ± 1.2 kg/m3. The mass density (1354.2 kPa) was 1011.7 ± 1.2 kg/m3, the mass density (1357.2 kPa) was 1011.6 ± 1.2 kg/m3 and the mass density (1360.5 kPa) was 1011.7 ± 1.2 kg/m3. It also gave a mass density (1363.6 kPa) of 1011.7 ± 1.2 kg/m3, a mass density (1367.4 kPa) of 1011.7 ± 1.2 kg/m3 and a mass density (1371.1 kPa) of 1011.7 ± 1.2 kg/m3. It also gave a mass density (1373.8 kPa) of 1011.7 ± 1.2 kg/m3, a mass density (1377.5 kPa) of 1011.7 ± 1.2 kg/m3 and a mass density (1381.3 kPa) of 1011.8 ± 1.2 kg/m3. For the same compound, the mass density (1384.2 kPa) was 1011.7 ± 1.2 kg/m3.

— the NIST ThermoML archive (doi:10.1021/je060271a)
